Experimental data published in US9283226B2, “Pyrazole derivatives as protein kinase modulators” (Astex Therapeutics Ltd, priority 2003, dated 2016).

Target: T1, PKB-PIF fusion protein (Homo sapiens, UniProt P31751)
T1 construct: made in house
Experiment: Measurement of PKB kinase inhibitory activity (IC50), radiometric filter plate assay
Format: biochemical
Conditions: 0.6 nM enzyme, 30 μM ATP, 25 μM AKTide-2T substrate, 20 minutes
Procedure: The reaction is allowed to proceed for 20 minutes before addition of excess orthophosphoric acid to quench activity. The reaction mixture is transferred to a phosphocellulose filter plate where the peptide binds and the unused ATP is washed away. After washing, scintillant is added and the incorporated activity measured by scintillation counting.

T1 sequence (P31751 with tags, fused parts or gaps limits assumed): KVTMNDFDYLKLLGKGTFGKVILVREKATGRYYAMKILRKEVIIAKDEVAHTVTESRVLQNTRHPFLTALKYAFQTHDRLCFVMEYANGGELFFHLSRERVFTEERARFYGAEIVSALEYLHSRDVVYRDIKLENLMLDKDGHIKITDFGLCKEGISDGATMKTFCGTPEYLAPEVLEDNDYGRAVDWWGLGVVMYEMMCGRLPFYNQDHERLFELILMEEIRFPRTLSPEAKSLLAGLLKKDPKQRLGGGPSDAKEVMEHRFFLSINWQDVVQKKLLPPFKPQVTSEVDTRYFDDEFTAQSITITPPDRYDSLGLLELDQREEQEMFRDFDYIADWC

Row | Structure (SMILES) | IC50 [nM]
1 | CNC[C@@H](c1ccc(Cl)cc1)c1ccc(-c2cn[nH]c2)cc1 [Example 22, {2-(4-Chloro-phenyl)-2-[4-(1H-pyrazol-4-yl)-phenyl]-ethyl}-methyl-amine (R)] | < 1000
2 | CNCC(c1ccccc1)c1ccc(-c2c[nH]nc2C)nc1 (centres unmarked) [Example 60] | < 5000
